For orientation: IC50 means the midpoint of a concentration-inhibition curve. High values mean weaker potency, low ones greater potency.

The experiment concerns the target human ATX (autotaxin, ENPP2), His-tagged (Homo sapiens (Human), UniProt Q13822). In words: Human ATX enzyme inhibition assay (fluorescence quenching, MR121 substrate). The format is biochemical. The settings on record: 30 nM ATX, 1 μM MR121 substrate, 30° C., pH 8.0. How it is done:
Human ATX Enzyme Inhibition Assay
ATX inhibition was measured by a fluorescence quenching assay using a specifically labeled substrate analogue (MR121 substrate). To obtain this MR121 substrate, BOC and TBS protected 6-amino-hexanoic acid (R)-3-({2-[3-(2-{2-[2-(2-amino-ethoxy)-ethoxy]-ethoxy}-ethoxy)-propionylamino]-ethoxy}-hydroxy-phosphoryloxy)-2-hydroxy-propyl ester (Ferguson et al., Org. Lett. 2006, 8, 2023) was labeled with MR121 fluorophore [CAS RN 185308-24-1], 1-(3-carboxypropyl)-11-ethyl-1,2,3,4,8,9,10,11-octahydro-dipyrido[3,2-b:2′,3′-i]phenoxazin-13-ium) on the free amine of the ethanolamine side and then, after deprotection, subsequently with tryptophan on the side of the aminohexanoic acid.
Assay working solutions were made as follows:
Assay buffer (50 mM Tris-HCl, 140 mM NaCl, 5 mM KCl, 1 mM CaCl2, 1 mM MgCl2, 0.01% Triton-X-100, pH 8.0;
ATX solution: ATX (human His-tagged) stock solution (1.08 mg/mL in 20 mM bicine, pH 8.5, 0.15 M NaCl, 10% glycerol, 0.3% CHAPS, 0.02% NaN3), diluted to 1.4-2.5× final concentration in assay buffer;
MR121 substrate solution: MR121 substrate stock solution (800 μM MR121 substrate in DMSO), diluted to 2-5× final concentration in assay buffer.
Test compounds (10 mM stock in DMSO, 8 μL) were obtained in 384 well sample plates (Corning Costar #3655) and diluted with 8 μL DMSO. Row-wise serial dilutions were made by transferring 8 μL cpd solution to the next row up to row O. The compound and control solutions were mixed five times and 2 μL were transferred to 384 well assay plates (Corning Costar #3702). Then, 15 μL of 41.7 nM ATX solution was added (30 nM final concentration), mixed five times and then incubated for 15 minutes at 30° C. 10 μL of MR121 substrate solution was added (1 μM final concentration), mixed 30 times and then incubated for 15 minutes at 30° C.
In turn, `O=C(Cn1cnc2ccc(N3CCN(CC4CCOC4)CC3)cc2c1=O)NCc1ccc(Cl)c(Cl)c1` (stereo not shown) [Example 97] yielded a half-maximal inhibitory concentration (IC50) of 4 nM. On to `O=C(Cn1cnc2ccc(N3CCN(CC4CCOCC4)CC3)cc2c1=O)NCc1ccc(Cl)c(Cl)c1` [Example 98], for which it took 44 nM to reach half-maximal inhibition (IC50).

For `Cn1cccc1CN1CCN(c2ccc3ncn(CC(=O)NCc4ccc(Cl)c(Cl)c4)c(=O)c3c2)CC1` [Example 99], the IC50 came to 31 nM. Turning to `O=C(Cn1cnc2ccc(N3CCN(Cc4ncc[nH]4)CC3)cc2c1=O)NCc1ccc(Cl)c(Cl)c1` [Example 100], it took 204 nM to reach half-maximal inhibition (IC50).

As for `O=C(Cn1cnc2ccc(N3CCN(Cc4cnc[nH]4)CC3)cc2c1=O)NCc1ccc(Cl)c(Cl)c1` [Example 101], the IC50 stood at 64 nM. To `O=C(Cn1cnc2ccc(N3CCN(Cc4ccoc4C(=O)O)CC3)cc2c1=O)NCc1ccc(Cl)c(Cl)c1` [Example 102] belongs 195 nM; to `Cc1nc(C)c(CN2CCN(c3ccc4ncn(CC(=O)NCc5ccc(Cl)c(Cl)c5)c(=O)c4c3)CC2)o1` [Example 103], 288 nM. The compound `CN(Cc1ccc(Cl)c(Cl)c1)C(=O)Cn1cnc2ccc(N3CCN(CC4CC4)CC3)cc2c1=O` [Example 104, 2-[6-[4-(Cyclopropylmethyl)piperazin-1-yl]-4-oxoquinazolin-3-yl]-N-[(3,4-dichlorophenyl)methyl]-N-methylacetamide] returned a half-inhibitory concentration (IC50) of 64 nM. Against the preceding compound, the IC50 is about 4.5-fold lower. Compound `COCCN1CCN(c2ccc3ncn(CC(=O)N(C)Cc4ccc(Cl)c(Cl)c4)c(=O)c3c2)CC1` [Example 105] had an IC50 of 59 nM. This IC50 and that of the compound before are within 1.5-fold of each other. `CN(Cc1ccc(Cl)c(Cl)c1)C(=O)Cn1cnc2ccc(N3CCN(CC4COC4)CC3)cc2c1=O` [Example 106] had a 50% inhibitory concentration (IC50) of 132 nM.

Compound `CNC(=O)CN1CCN(c2ccc3ncn(CC(=O)N(C)Cc4ccc(Cl)c(Cl)c4)c(=O)c3c2)CC1` [Example 107, N-[(3,4-Dichlorophenyl)methyl]-N-methyl-2-[6-[4-[2-(methylamino)-2-oxoethyl]piperazin-1-yl]-4-oxoquinazolin-3-yl]acetamide] returned an IC50 of 67 nM. With `CN(C)C(=O)CN1CCN(c2ccc3ncn(CC(=O)N(C)Cc4ccc(Cl)c(Cl)c4)c(=O)c3c2)CC1` [Example 108], the 50% inhibitory concentration (IC50) stood at 55 nM. For the compound `CC(C)NC(=O)CN1CCN(c2ccc3ncn(CC(=O)N(C)Cc4ccc(Cl)c(Cl)c4)c(=O)c3c2)CC1` [Example 109], half-maximal inhibition (IC50) required 35 nM.

Consider `CCN(CC)C(=O)CN1CCN(c2ccc3ncn(CC(=O)N(C)Cc4ccc(Cl)c(Cl)c4)c(=O)c3c2)CC1` [Example 110], for which half-maximal inhibition (IC50) required 34 nM. `CN(Cc1ccc(Cl)c(Cl)c1)C(=O)Cn1cnc2ccc(N3CCN(CC(=O)N4CCOCC4)CC3)cc2c1=O` [Example 111] registered an IC50 of 35 nM.

As to `CN(Cc1ccc(Cl)c(Cl)c1)C(=O)Cn1cnc2ccc(N3CCN(CC(=O)Nc4ccccc4)CC3)cc2c1=O` [Example 112], the concentration for half-maximal inhibition (IC50) turned out to be 71 nM. `N#Cc1ccc(CNC(=O)Cn2cnc3ccc(N4CCN(C(=O)C5COC5)CC4)cc3c2=O)c(Cl)c1` [Example 113, N-[(2-Chloro-4-cyanophenyl)methyl]-2-[6-[4-(oxetane-3-carbonyl)piperazin-1-yl]-4-oxoquinazolin-3-yl]acetamide] displayed an IC50 of 202 nM. `CN(Cc1ccc(C#N)c(Cl)c1)C(=O)Cn1cnc2ccc(N3CCN(CC4CCOC4)CC3)cc2c1=O` (stereo not shown) [Example 114, N-[(3-Chloro-4-cyanophenyl)methyl]-N-methyl-2-[4-oxo-6-[4-(oxolan-3-ylmethyl)piperazin-1-yl]quinazolin-3-yl]acetamide] showed a concentration for half-maximal inhibition (IC50) of 26 nM. `CN(Cc1ccc(Cl)c(C#N)c1)C(=O)Cn1cnc2ccc(N3CCN(CC4CCOC4)CC3)cc2c1=O` (stereo not shown) [Example 115, N-[(4-Chloro-3-cyanophenyl)methyl]-N-methyl-2-[4-oxo-6-[4-(oxolan-3-ylmethyl)piperazin-1-yl]quinazolin-3-yl]acetamide] yielded a half-maximal inhibitory concentration (IC50) of 29 nM. Then `CCN(Cc1ccc(Cl)c(Cl)c1)C(=O)Cn1cnc2ccc(N3CCN(C(C)=O)CC3)cc2c1=O` [Example 116, 2-[6-(4-Acetylpiperazin-1-yl)-4-oxoquinazolin-3-yl]-N-[(3,4-dichlorophenyl)methyl]-N-ethylacetamide], with 16 nM.

With `CC(=O)N1CCN(c2ccc3ncn(CC(=O)N(Cc4ccc(Cl)c(Cl)c4)C(C)C)c(=O)c3c2)CC1` [Example 117, 2-[6-(4-Acetylpiperazin-1-yl)-4-oxoquinazolin-3-yl]-N-[(3,4-dichlorophenyl)methyl]-N-propan-2-ylacetamide], the IC50 was found to be 16 nM. Then `CC(=O)N1CCCN(c2ccc3ncn(CC(=O)NCc4ccc(C(F)(F)F)cc4)c(=O)c3c2)CC1` [Example 119], with 649 nM; and `CC(=O)N1CCCN(c2ccc3ncn(CC(=O)N(C)Cc4ccc(C#N)c(Cl)c4)c(=O)c3c2)CC1` [Example 120], with 9 nM; and `CC(=O)N1CCCN(c2ccc3ncn(CC(=O)N(C)Cc4ccc(Cl)c(C#N)c4)c(=O)c3c2)CC1` [Example 121], with 20 nM. Then `CC(=O)N1CCC(c2ccc3ncn(CC(=O)NCc4ccc(Cl)c(Cl)c4)c(=O)c3c2)CC1` [Example 122], with 12 nM; and `CC(=O)N1CCC(c2ccc3ncn(CC(=O)NCc4ccc(C(F)(F)F)cc4)c(=O)c3c2)CC1` [Example 123], with 67 nM; and `CC(=O)N1CCC(c2ccc3ncn(CC(=O)N(C)Cc4ccc(Cl)c(Cl)c4)c(=O)c3c2)CC1` [Example 124], with 7 nM.

As for `CC(=O)N1CCC(c2ccc3ncn(CC(=O)N(C)Cc4ccc(C#N)c(Cl)c4)c(=O)c3c2)CC1` [Example 125], the IC50 stood at 7 nM. `CC(=O)N1CCC(c2ccc3ncn(CC(=O)N(C)Cc4ccc(Cl)c(C#N)c4)c(=O)c3c2)CC1` [Example 126] showed a 50% inhibitory concentration (IC50) of 12 nM. Consider `CC(=O)N1CCC(c2ccc3ncn(CC(=O)N(C)Cc4ccc(C#N)c(F)c4)c(=O)c3c2)CC1` [Example 127], for which half-maximal inhibition (IC50) was put at 9 nM. This IC50 and that of the compound before are within 1.5-fold of each other. To `CC(=O)N1CCC(c2ccc3ncn(CC(=O)N(C)Cc4ccc(Cl)c(OC(F)(F)F)c4)c(=O)c3c2)CC1` [Example 128, 2-[6-(1-Acetylpiperidin-4-yl)-4-oxoquinazolin-3-yl]-N-[[4-chloro-3-(trifluoromethoxy)phenyl]methyl]-N-methylacetamide] belongs 15 nM; to `CN(Cc1ccc(C#N)c(Cl)c1)C(=O)Cn1cnc2ccc(N3CCCN(CC4CCOC4)CC3)cc2c1=O` (stereo not shown) [Example 129, N-[(3-Chloro-4-cyanophenyl)methyl]-N-methyl-2-[4-oxo-6-[4-(oxolan-3-ylmethyl)-1,4-diazepan-1-yl]quinazolin-3-yl]acetamide], 26 nM; to `CN(Cc1ccc(Cl)c(C#N)c1)C(=O)Cn1cnc2ccc(N3CCCN(CC4CCOC4)CC3)cc2c1=O` (stereo not shown) [Example 130, N-[(4-Chloro-3-cyanophenyl)methyl]-N-methyl-2-[4-oxo-6-[4-(oxolan-3-ylmethyl)-1,4-diazepan-1-yl]quinazolin-3-yl]acetamide], 111 nM. For `CN(Cc1ccc(C#N)c(Cl)c1)C(=O)Cn1cnc2ccc(C3CCN(C(=O)CO)CC3)cc2c1=O` [Example 131, N-[(3-Chloro-4-cyanophenyl)methyl]-2-[6-[1-(2-hydroxyacetyl)piperidin-4-yl]-4-oxoquinazolin-3-yl]-N-methylacetamide], the midpoint of inhibition, the IC50, lay at 1 nM. Compared with the last compound, the IC50 is about 110-fold lower. On to `COCC(=O)N1CCC(c2ccc3ncn(CC(=O)N(C)Cc4ccc(C#N)c(Cl)c4)c(=O)c3c2)CC1` [Example 132], for which the IC50 amounted to 12 nM. To `COC(C)C(=O)N1CCC(c2ccc3ncn(CC(=O)N(C)Cc4ccc(C#N)c(Cl)c4)c(=O)c3c2)CC1` (stereo not shown) [Example 133] belongs 1 nM. As to `COCCC(=O)N1CCC(c2ccc3ncn(CC(=O)N(C)Cc4ccc(C#N)c(Cl)c4)c(=O)c3c2)CC1` [Example 134], 1 nM corresponded to half-maximal inhibition (IC50). This lies in the single-digit nanomolar range.

Turning to `CC(C)OCC(=O)N1CCC(c2ccc3ncn(CC(=O)N(C)Cc4ccc(C#N)c(Cl)c4)c(=O)c3c2)CC1` [Example 135], 1 nM corresponded to half-maximal inhibition (IC50). This counts as single-digit nanomolar.

For `CN(Cc1ccc(C#N)c(Cl)c1)C(=O)Cn1cnc2ccc(C3CCN(C(=O)C4CC4)CC3)cc2c1=O` [Example 136], the 50% inhibitory concentration (IC50) was 1 nM. That is a single-digit nanomolar value. Then `CN(Cc1ccc(C#N)c(Cl)c1)C(=O)Cn1cnc2ccc(C3CCN(C(=O)C4CCC4)CC3)cc2c1=O` [Example 137], with 2 nM; and `CN(Cc1ccc(C#N)c(Cl)c1)C(=O)Cn1cnc2ccc(C3CCN(C(=O)C4CC(F)C4)CC3)cc2c1=O` (stereo not shown) [Example 138], with 3 nM; and `CN(Cc1ccc(C#N)c(Cl)c1)C(=O)Cn1cnc2ccc(C3CCN(C(=O)C4CC(Cl)C4)CC3)cc2c1=O` (stereo not shown) [Example 139], with 18 nM. Compound `CN(Cc1ccc(C#N)c(Cl)c1)C(=O)Cn1cnc2ccc(C3CCN(C(=O)C4CC(F)(F)C4)CC3)cc2c1=O` [Example 140] yielded an IC50 of 47 nM.

For the origin of these results see patent US10676446B2, “Bicyclic quinazolinone derivatives” (Hoffmann-La Roche Inc., priority 2015, dated 2020).
